According to patent publication US20250313548A1 (Actio Biosciences, Inc., priority 2023, published 2025):

Molecular target: human, KCNT1 (Homo sapiens (Human), UniProt Q5JUK3)
Assay: FLIPR Tl/K Flux Assay
Type: cell-based
Conditions: HEK293 cells stably expressing human KCNT1; Tl+ flux stimulated with EC80 of agonist Loxapine
Outline: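 HEK293 cells stably expressing human KCNT1 were loaded with FLIPR potassium dye in HEPES/HBSS pH 7.4 with 5 mM probenecid, 1 h at 25 °C, then given test compound for 30 min at 25 °C. Tl+ flux was triggered with chloride-free buffer containing Tl+ and EC80 loxapine and read 160 s. IC50 came from Hill fits of % inhibition.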

Sequence of human, KCNT1 (Q5JUK3 whole entry): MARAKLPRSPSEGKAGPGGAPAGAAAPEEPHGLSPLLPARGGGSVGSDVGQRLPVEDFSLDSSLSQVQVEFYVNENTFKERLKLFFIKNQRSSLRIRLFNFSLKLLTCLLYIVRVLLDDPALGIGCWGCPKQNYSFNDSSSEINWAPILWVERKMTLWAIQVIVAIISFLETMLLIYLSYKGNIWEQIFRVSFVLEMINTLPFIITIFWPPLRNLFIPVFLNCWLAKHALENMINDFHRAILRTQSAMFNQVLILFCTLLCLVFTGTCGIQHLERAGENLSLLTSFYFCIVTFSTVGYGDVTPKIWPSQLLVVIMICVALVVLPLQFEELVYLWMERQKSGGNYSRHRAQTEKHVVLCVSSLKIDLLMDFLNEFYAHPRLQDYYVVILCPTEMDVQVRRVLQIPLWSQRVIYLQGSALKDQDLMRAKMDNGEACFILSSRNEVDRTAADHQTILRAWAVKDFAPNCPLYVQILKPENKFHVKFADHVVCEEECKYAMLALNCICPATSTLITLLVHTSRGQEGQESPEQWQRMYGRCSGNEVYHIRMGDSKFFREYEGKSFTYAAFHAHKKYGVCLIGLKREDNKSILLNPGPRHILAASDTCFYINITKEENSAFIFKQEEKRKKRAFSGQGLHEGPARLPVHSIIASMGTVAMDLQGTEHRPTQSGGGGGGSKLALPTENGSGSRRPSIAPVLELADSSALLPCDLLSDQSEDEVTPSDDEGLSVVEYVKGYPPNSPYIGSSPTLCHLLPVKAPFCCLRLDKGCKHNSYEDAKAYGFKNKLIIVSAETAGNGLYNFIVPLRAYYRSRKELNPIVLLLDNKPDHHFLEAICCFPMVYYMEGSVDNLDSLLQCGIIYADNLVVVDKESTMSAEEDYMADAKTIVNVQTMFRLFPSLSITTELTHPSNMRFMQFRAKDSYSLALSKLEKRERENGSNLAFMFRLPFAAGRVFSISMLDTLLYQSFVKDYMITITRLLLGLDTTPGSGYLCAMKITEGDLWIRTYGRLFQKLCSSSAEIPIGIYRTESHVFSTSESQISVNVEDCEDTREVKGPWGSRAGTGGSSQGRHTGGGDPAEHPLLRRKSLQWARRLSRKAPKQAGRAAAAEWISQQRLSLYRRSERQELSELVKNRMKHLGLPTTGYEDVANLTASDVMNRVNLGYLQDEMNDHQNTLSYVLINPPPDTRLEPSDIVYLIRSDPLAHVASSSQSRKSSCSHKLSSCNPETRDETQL

`COc1cc(C(=O)N[C@H]2CCCc3oc(-c4ccnc(C(F)(F)F)c4)nc32)ccn1` [Compound I-299a] and `COc1cc(C(=O)N[C@H]2CCCCn3nc(-c4ccnc(C(F)(F)F)c4)cc32)ccn1` [Compound I-329a, (S)-2-Methoxy-N-(2-(2-(trifluoromethyl)pyridin-4-yl)-5,6,7,8-tetrahydro-4H-pyrazolo[1,5-a]azepin-4-yl)isonicotinamide] cannot be ordered by IC50: under 250 nM for the first, under 250 nM for the second.

`N#Cc1cc(F)cc(C(=O)N[C@H]2CCn3nc(-c4ccnc(C5CC5)c4)cc32)c1` [Compound I-300a, (S)-3-Cyano-N-(2-(2-cyclopropylpyridin-4-yl)-5,6-dihydro-4H-pyrrolo[1,2-b]pyrazol-4-yl)-5-fluorobenzamide] and `Cc1cc(C#N)cc(C(=O)NC2CCn3nc(-c4ccnc(C5CC5)c4)cc32)c1` (stereo not drawn) [Compound I-306a, 3-Cyano-N-(2-(2-cyclopropylpyridin-4-yl)-5,6-dihydro-4H-pyrrolo[1,2-b]pyrazol-4-yl)-5-methylbenzamide] cannot be ordered by IC50: under 250 nM for the first, under 250 nM for the second.

`COc1cc(-c2cc3n(n2)CC[C@@H]3NC(=O)c2cc(F)cc(C#N)c2)ccn1` [Compound I-301a, (S)-3-Cyano-5-fluoro-N-(2-(2-methoxypyridin-4-yl)-5,6-dihydro-4H-pyrrolo[1,2-b]pyrazol-4-yl)benzamide] and `COc1cc(-c2cc3n(n2)CCC[C@@H]3NC(=O)c2cc(F)cc(C#N)c2)ccn1` [Compound I-313a, (S)-3-Cyano-5-fluoro-N-(2-(2-methoxypyridin-4-yl)-4,5,6,7-tetrahydropyrazolo[1,5-a]pyridin-4-yl)benzamide] cannot be ordered by IC50: under 250 nM for the first, under 250 nM for the second.

`N#Cc1cccc(C(=O)N[C@H]2CCCn3nc(-c4cc(C(F)(F)F)ncc4F)cc32)c1` [Compound I-302a, (S)-3-Cyano-N-(2-(5-fluoro-2-(trifluoromethyl)pyridin-4-yl)-4,5,6,7-tetrahydropyrazolo[1,5-a]pyridin-4-yl)benzamide] and `N#Cc1cc(F)cc(C(=O)N[C@H]2CCCn3nc(-c4ccnc(C(F)(F)F)c4)cc32)c1` [Compound I-320a, (S)-3-Cyano-5-fluoro-N-(2-(2-(trifluoromethyl)pyridin-4-yl)-4,5,6,7-tetrahydropyrazolo[1,5-a]pyridin-4-yl)benzamide] cannot be ordered by IC50: under 250 nM for the first, under 250 nM for the second.

`Cc1cnc(C(F)(F)F)cc1-c1cc2n(n1)CCC[C@@H]2NC(=O)c1nc(C(F)(F)F)nn1C` [Compound I-303a, (S)-1-Methyl-N-(2-(5-methyl-2-(trifluoromethyl)pyridin-4-yl)-4,5,6,7-tetrahydropyrazolo[1,5-a]pyridin-4-yl)-3-(trifluoromethyl)-1H-1,2,4-triazole-5-carboxamide] and `Cn1nc(C(F)(F)F)nc1C(=O)N[C@H]1CCCn2nc(-c3ccnc(C(F)(F)F)c3)cc21` [Compound I-326a, (S)-1-Methyl-3-(trifluoromethyl)-N-(2-(2-(trifluoromethyl)pyridin-4-yl)-4,5,6,7-tetrahydropyrazolo[1,5-a]pyridin-4-yl)-1H-1,2,4-triazole-5-carboxamide] cannot be ordered by IC50: under 250 nM for the first, under 250 nM for the second.

`Cc1cnc(C(F)(F)F)cc1-n1cc2c(n1)CC[C@@H]2NC(=O)c1cc(C(F)(F)F)nn1C` [Compound I-304a, (S)-1-Methyl-N-(2-(5-methyl-2-(trifluoromethyl)pyridin-4-yl)-2,4,5,6-tetrahydrocyclopenta[c]pyrazol-4-yl)-3-(trifluoromethyl)-1H-pyrazole-5-carboxamide] and `Cc1cnc(C(F)(F)F)cc1-c1cc2n(n1)CCCC[C@@H]2NC(=O)c1cc(C(F)(F)F)nn1C` [Compound I-311a, (S)-1-Methyl-N-(2-(5-methyl-2-(trifluoromethyl)pyridin-4-yl)-5,6,7,8-tetrahydro-4H-pyrazolo[1,5-a]azepin-4-yl)-3-(trifluoromethyl)-1H-pyrazole-5-carboxamide] cannot be ordered by IC50: under 250 nM for the first, under 250 nM for the second.

`Cn1nc(C(F)(F)F)cc1C(=O)N[C@H]1CCCn2nc(-c3cnnc(C(F)(F)F)c3)cc21` [Compound I-307a, (S)-1-Methyl-3-(trifluoromethyl)-N-(2-(6-(trifluoromethyl)pyridazin-4-yl)-4,5,6,7-tetrahydropyrazolo[1,5-a]pyridin-4-yl)-1H-pyrazole-5-carboxamide] and `Cn1nc(C(F)(F)F)cc1C(=O)N[C@H]1CCCn2nc(-c3nnc(C(F)(F)F)o3)cc21` [Compound I-316a, (S)-1-Methyl-3-(trifluoromethyl)-N-(2-(5-(trifluoromethyl)-1,3,4-oxadiazol-2-yl)-4,5,6,7-tetrahydropyrazolo[1,5-a]pyridin-4-yl)-1H-pyrazole-5-carboxamide] fall in the same range of IC50: 500 to 1000 nM for the first, 500 to 1000 nM for the second.

`Cn1nc(C(F)(F)F)nc1C(=O)N[C@H]1CCc2nn(-c3ccnc(C(F)(F)F)c3)cc21` [Compound I-308a, (S)-1-Methyl-3-(trifluoromethyl)-N-(2-(2-(trifluoromethyl)pyridin-4-yl)-2,4,5,6-tetrahydrocyclopenta[c]pyrazol-4-yl)-1H-1,2,4-triazole-5-carboxamide] and `Cn1nc(C(F)(F)F)nc1C(=O)N[C@H]1CCn2nc(-c3ccnc(C(F)(F)F)c3)cc21` [Compound I-314a, (S)-1-Methyl-3-(trifluoromethyl)-N-(2-(2-(trifluoromethyl)pyridin-4-yl)-5,6-dihydro-4H-pyrrolo[1,2-b]pyrazol-4-yl)-1H-1,2,4-triazole-5-carboxamide] cannot be ordered by IC50: under 250 nM for the first, under 250 nM for the second.

`N#Cc1cccc(C(=O)N[C@H]2CCn3nc(-c4ccnc(C5CC5)c4)cc32)c1` [Compound I-310a, (S)-3-Cyano-N-(2-(2-cyclopropylpyridin-4-yl)-5,6-dihydro-4H-pyrrolo[1,2-b]pyrazol-4-yl)benzamide] and `N#Cc1cc(F)cc(C(=O)N[C@H]2CCn3nc(-c4ccnc(C(F)(F)F)c4)cc32)c1` [Compound I-323a, (S)-3-Cyano-5-fluoro-N-(2-(2-(trifluoromethyl)pyridin-4-yl)-5,6-dihydro-4H-pyrrolo[1,2-b]pyrazol-4-yl)benzamide] cannot be ordered by IC50: under 250 nM for the first, under 250 nM for the second.

First: Cc1cnc(C(F)(F)F)cc1-c1cc2n(n1)CCCC[C@H]2NC(=O)c1cc(C(F)(F)F)nn1C [Compound I-311b]
Second: Cn1nc(C(F)(F)F)cc1C(=O)N[C@H]1CCCn2nc(-c3cnc(C(F)(F)F)o3)cc21 [Compound I-317a, (S)-1-Methyl-3-(trifluoromethyl)-N-(2-(2-(trifluoromethyl)oxazol-5-yl)-4,5,6,7-tetrahydropyrazolo[1,5-a]pyridin-4-yl)-1H-pyrazole-5-carboxamide]
The IC50 of the first is higher: over 1000 nM for the first, 500 to 1000 nM for the second. The second is the more potent here.

`COc1cc(-c2cc3n(n2)CCCC[C@@H]3NC(=O)c2cc(F)cc(C#N)c2)ccn1` [Compound I-312a, (S)-3-Cyano-5-fluoro-N-(2-(2-methoxypyridin-4-yl)-5,6,7,8-tetrahydro-4H-pyrazolo[1,5-a]azepin-4-yl)benzamide] and `N#Cc1cc(F)cc(C(=O)N[C@H]2CCCCn3nc(-c4ccnc(C(F)(F)F)c4)cc32)c1` [Compound I-319a, (S)-3-Cyano-5-fluoro-N-(2-(2-(trifluoromethyl)pyridin-4-yl)-5,6,7,8-tetrahydro-4H-pyrazolo[1,5-a]azepin-4-yl)benzamide] cannot be ordered by IC50: under 250 nM for the first, under 250 nM for the second.

Compared with `Cc1cc(-c2cc3n(n2)CCC[C@@H]3NC(=O)c2cc(C(F)(F)F)nn2C)cc(C2CC2)n1` [Compound I-315a, (S)-N-(2-(2-Cyclopropyl-6-methylpyridin-4-yl)-4,5,6,7-tetrahydropyrazolo[1,5-a]pyridin-4-yl)-1-methyl-3-(trifluoromethyl)-1H-pyrazole-5-carboxamide], `Cn1nc(C(F)(F)F)cc1C(=O)N[C@H]1CCCn2nc(-c3ccnc(CO)c3)cc21` [Compound I-322a, (S)—N-(2-(2-(Hydroxymethyl)pyridin-4-yl)-4,5,6,7-tetrahydropyrazolo[1,5-a]pyridin-4-yl)-1-methyl-3-(trifluoromethyl)-1H-pyrazole-5-carboxamide] is higher in IC50: under 250 nM for the first, over 1000 nM for the second.

`CCOc1cc(C(=O)N[C@H]2CCn3nc(-c4cc(C(F)(F)F)ncc4F)cc32)ccn1` [Compound I-318a, (S)-2-Ethoxy-N-(2-(5-fluoro-2-(trifluoromethyl)pyridin-4-yl)-5,6-dihydro-4H-pyrrolo[1,2-b]pyrazol-4-yl)isonicotinamide] and `N#Cc1cc(C(=O)N[C@H]2CCCn3nc(-c4ccnc(C(F)(F)F)c4)cc32)ccn1` [Compound I-328a, (S)-2-Cyano-N-(2-(2-(trifluoromethyl)pyridin-4-yl)-4,5,6,7-tetrahydropyrazolo[1,5-a]pyridin-4-yl)isonicotinamide] cannot be ordered by IC50: under 250 nM for the first, under 250 nM for the second.

`N#Cc1cncc(C(=O)N[C@H]2CCCn3nc(-c4ccnc(C(F)(F)F)c4)cc32)n1` [Compound I-321a, (S)-6-Cyano-N-(2-(2-(trifluoromethyl)pyridin-4-yl)-4,5,6,7-tetrahydropyrazolo[1,5-a]pyridin-4-yl)pyrazine-2-carboxamide] and `O=C(N[C@H]1CCCn2nc(-c3ccnc(C(F)(F)F)c3)cc21)c1ccnc(C(F)(F)F)n1` [Compound I-327a, (S)-2-(Trifluoromethyl)-N-(2-(2-(trifluoromethyl)pyridin-4-yl)-4,5,6,7-tetrahydropyrazolo[1,5-a]pyridin-4-yl)pyrimidine-4-carboxamide] cannot be ordered by IC50: under 250 nM for the first, under 250 nM for the second.

`Cn1nc(C(F)(F)F)nc1C(=O)N[C@H]1CCCCn2nc(-c3ccnc(C(F)(F)F)c3)cc21` [Compound I-324a, (S)-1-Methyl-3-(trifluoromethyl)-N-(2-(2-(trifluoromethyl)pyridin-4-yl)-5,6,7,8-tetrahydro-4H-pyrazolo[1,5-a]azepin-4-yl)-1H-1,2,4-triazole-5-carboxamide] and `Cc1nn(C(F)(F)F)cc1C(=O)N[C@H]1CCCn2nc(-c3ccnc(C(F)(F)F)c3)cc21` [Compound I-325a, (S)-3-Methyl-1-(trifluoromethyl)-N-(2-(2-(trifluoromethyl)pyridin-4-yl)-4,5,6,7-tetrahydropyrazolo[1,5-a]pyridin-4-yl)-1H-pyrazole-4-carboxamide] cannot be ordered by IC50: under 250 nM for the first, under 250 nM for the second.
